Counter-ions that a name gives are not always drawn.
Row | Compound | melting point
1 | OC(C1CCCCC1)C(CCN1CC=C(c2cc3ccccc3s2)CC1)c1ccccn1 (single isomer, unassigned) (as salt: oxalate) | 210 to 212 °C
2 | O=C(C1CCCCC1)C(CCN1CC=C(c2csc3ccccc23)CC1)c1ccccn1 (centres unmarked) (as salt: oxalate) | 208 to 210 °C
3 | O=C(C1CCCCC1)C(CCN1CC=C(c2ccc3ccsc3c2)CC1)c1ccccn1 (centres unmarked) (as salt: oxalate) | 164 to 169 °C
4 | OC(C1CCCCC1)C(CCN1CC=C(c2ccc3ccsc3c2)CC1)c1ccccn1 (centres unmarked) (as salt: oxalate) | 94 to 98 °C
5 | O=C(C1CCCCC1)C(CCN1CC=C(c2ccc3sccc3c2)CC1)c1ccccn1 (centres unmarked) (as salt: oxalate) | 194 to 196 °C
6 | O=C(C1CCCCC1)C(CCN1CC=C(c2cc3ccccc3s2)CC1)c1ccccn1 (centres unmarked) (as salt: oxalate) | 228 to 230 °C
7 | OC(C1CCCCC1)C(CCN1CC=C(c2csc3ccccc23)CC1)c1ccccn1 (centres unmarked) (as salt: oxalate) | 100 to 107 °C
8 | OC(C1CCCCC1)C(CCN1CC=C(c2ccc3sccc3c2)CC1)c1ccccn1 (single isomer, unassigned) (as salt: oxalate) | 190 to 192 °C

Reference: patent publication US6828332B1, “Piperidine derivatives as reuptake inhibitors” (Eli Lilly and Company, priority 1999, dated 2004)
